The numbers were not newly measured in US5393873A, “Peptides with anticoagulant activity” (BASF Aktiengesellschaft, priority 1991, dated 1995), which cites them from elsewhere.

The data set concerns the target thrombin (Homo sapiens, UniProt P00734).

As to “Val-Val-Tyr-Thr-Asp-Cys-Thr-Glu-Ser-Gly-Gln-Asn-Leu-Cys-Leu-Cys-Glu-Gly-Ser-Asn-Val-Cys-Gly-Gln-Gly-Asn-Lys-Cys-Ile-Leu-Gly-Ser-Asp-Gly-Glu-Lys-Asn-Gly-Cys-Val-Thr-Gly-Glu-Gly-Thr-Pro-Lys-Pro-Gln-Ser-His-Asn-Asp-Gly-Asp-Phe-Glu-Glu-Ile-Pro-Glu-Glu-Tyr(SO3 H)-Leu-Gln [Hirudin]”, the binding to thrombin result was “very strongly”.
